The values below come from patent US12448388B2, “PRMT5 inhibitors and uses thereof” (Gilead Sciences, Inc., priority 2023, dated 2025).

For orientation: CC50 means the concentration giving 50% cytotoxicity. As a reminder, the EC50 is the concentration giving half of the maximal effect.

Where two headings read alike, the source gives them in different places.

For series [1], the system named is HCT116 MTAP-deleted cell lines. The series is described as follows: Cell viability assay (CellTiter-Glo, 7 days), HCT116 MTAP-deleted. It is filed as cell-based. On the set-up: CC50 selectivity: unit not given beside the values. The procedure, abridged:
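HCT116 MTAP-deleted and wild-type cells exposed to serially diluted compound for 7 days at 37 °C, 5% CO2. Viability read by CellTiter-Glo luminescence; CC50 derived per line, with selectivity comparing WT to MTAP-deleted, limited solubility can inflate values marked *.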
Background: ATP-based viability assays read luminescence as a measure of living cells.

In series [2] the test system is Symmetric Di-methyl Arginine (SDMA) signal (PRMT5 inhibition) in HCT116 MTAP-deleted cells. The series is described as follows: Symmetric di-methyl arginine image-based high content screen assay (SDMA assay), HCT116 MTAP-deleted. It is filed as cell-based. To be noted: for EC50 selectivity: HCT116 WT vs HCT116 MTAP-deleted; for EC50: class symbols. An outline of the steps:
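HCT116 WT and MTAP-deleted cells (800/well, RPMI 1640 + 10% FBS) treated with compound 3 days at 37 °C; formalin-fixed, stained with anti-SDMA antibody/Alexa 488 plus DAPI. Mean SDMA intensity per DAPI-defined cell imaged; EC50 from 4-parameter logistic fit.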

Where [3] appears, read: Homo sapiens, HCT-116, cell viability assay, HCT116 MTAP-deleted, class symbols, read-out: CC50.
The mark [4] stands for this setting: Homo sapiens, HCT-116, HCT116 MTAP-deleted.

Consider `Cc1ncn2c(N)nc3ccc(C(=O)N(Cc4ccc(C(F)(F)F)cn4)[C@H](C)c4ncccn4)cc3c12` [Fg-2, (R)-5-amino-1-methyl-N-(1-(pyrimidin-2-yl)ethyl)-N-((5-(trifluoromethyl)pyridin-2-yl)methyl)imidazo[1,5-c]quinazoline-9-carboxamide], for which, in series [1] (setting [3]), the cytotoxic concentration (CC50) is less than 100 nM. Moreover, the EC50 selectivity in series [2] worked out at 39. Moreover, in series [2] (setting [4]), the EC50 lay in the range of 1 to 5 nM.

As for `C[C@H](c1ncccn1)N(Cc1ccc(C(F)(F)F)cn1)C(=O)c1cc2c(cc1Cl)nc(N)n1cncc21` [Fg-3, (R)-5-amino-8-chloro-N-(1-(pyrimidin-2-yl)ethyl)-N-((5-(trifluoromethyl)pyridin-2-yl)methyl)imidazo[1,5-c]quinazoline-9-carboxamide], the CC50 in series [1] (setting [3]) fell in the range of 100 to 1000 nM. The molecule further had an EC50 selectivity in series [2] of 16. Also, the concentration for a half-maximal effect (EC50) in series [2] (setting [4]) was more than 5 nM.

For the molecule `C[C@H](c1ncccn1)N(Cc1ccc(C(F)(F)F)cn1)C(=O)c1cc2c(cc1F)nc(N)n1cncc21` [Fg-4, (R)-5-amino-8-fluoro-N-(1-(pyrimidin-2-yl)ethyl)-N-((5-(trifluoromethyl)pyridin-2-yl)methyl)imidazo[1,5-c]quinazoline-9-carboxamide], the 50% cytotoxic concentration (CC50) in series [1] (setting [3]) was 100 to 1000 nM. In series [2], this molecule showed an EC50 selectivity of 23. Moreover, the EC50 in series [2] (setting [4]) was in the range of 1 to 5 nM.

Consider `Cc1ncc2c3cc(C(=O)N(Cc4ccc(C(F)(F)F)cn4)[C@H](C)c4ncccn4)ccc3nc(N)n12` [Fg-5, (R)-5-amino-3-methyl-N-(1-(pyrimidin-2-yl)ethyl)-N-((5-(trifluoromethyl)pyridin-2-yl)methyl)imidazo[1,5-c]quinazoline-9-carboxamide], for which the CC50 in series [1] (setting [3]) was less than 100 nM. This molecule registered an EC50 selectivity in series [2] of 19. This molecule also displayed an EC50 in series [2] (setting [4]) of 1 to 5 nM.

On to `CCN(C(=O)c1ccc2nc(N)c3c(C)ncn3c2c1)[C@@H]1COc2cc(C(F)(F)F)ccc21` [Fg-6, (S)-4-amino-N-ethyl-3-methyl-N-(6-(trifluoromethyl)-2,3-dihydrobenzofuran-3-yl)imidazo[1,5-a]quinoxaline-8-carboxamide], for which the CC50 in series [1] (setting [3]) was less than 100 nM. This molecule also returned an EC50 selectivity in series [2] of 88. Moreover, the EC50 in series [2] (setting [4]) lay within 1 to 5 nM.

Regarding `Cc1ncn2c1c(N)nc1ccc(C(=O)N(C)[C@@H]3COc4nc(C(F)(F)F)ccc43)cc12` [Fg-7, (S)-4-amino-N,3-dimethyl-N-(6-(trifluoromethyl)-2,3-dihydrofuro[2,3-b]pyridin-3-yl)imidazo[1,5-a]quinoxaline-8-carboxamide], the CC50 in series [1] (setting [3]) was 100 to 1000 nM. In series [2], this molecule displayed an EC50 selectivity of 496. The half-maximal effective concentration (EC50) in series [2] (setting [4]) fell in the range of 1 to 5 nM.

Regarding `CN(C(=O)c1ccc2nc(N)n3cncc3c2c1)[C@@H]1COc2cc(C(F)(F)F)ccc21` [Fg-9, (S)-5-amino-N-methyl-N-(6-(trifluoromethyl)-2,3-dihydrobenzofuran-3-yl)imidazo[1,5-c]quinazoline-9-carboxamide], in series [1] (setting [3]), the 50% cytotoxic concentration (CC50) was more than 1000 nM. Also, the EC50 selectivity in series [2] stood at 255. Also, in series [2] (setting [4]), the EC50 is more than 5 nM.

On to `Cc1ncc2c3cc(C(=O)N(C)[C@@H]4COc5cc(C(F)(F)F)ccc54)ccc3nc(N)n12` [Fg-10, (S)-5-amino-N,3-dimethyl-N-(6-(trifluoromethyl)-2,3-dihydrobenzofuran-3-yl)imidazo[1,5-c]quinazoline-9-carboxamide], for which, in series [1] (setting [3]), the 50% cytotoxic concentration (CC50) was more than 1000 nM. Besides, the EC50 selectivity in series [2] is 307. In series [2] (setting [4]), this molecule displayed a half-maximal effective concentration (EC50) of more than 5 nM.

Regarding `Cc1ncn2c(N)nc3ccc(C(=O)N(C)[C@@H]4COc5cc(C(F)(F)F)ccc54)cc3c12` [Fg-11, (S)-5-amino-N,1-dimethyl-N-(6-(trifluoromethyl)-2,3-dihydrobenzofuran-3-yl)imidazo[1,5-c]quinazoline-9-carboxamide], the CC50 in series [1] (setting [3]) lay in the range of 100 to 1000 nM. Further, the EC50 selectivity in series [2] is 225. In series [2] (setting [4]), the EC50 is more than 5 nM.

Turning to `Cc1ncn2c1c(N)nc1ccc(C(=O)N(C)C3CCc4nc(C(F)(F)F)ccc43)cc12` (stereo not shown) [Fg-12, 4-amino-N,3-dimethyl-N-(2-(trifluoromethyl)-6,7-dihydro-5H-cyclopenta[b]pyridin-5-yl)imidazo[1,5-a]quinoxaline-8-carboxamide], the CC50 in series [1] (setting [3]) is less than 100 nM. Also, the EC50 selectivity in series [2] is on record as 168. In addition, in series [2] (setting [4]), the EC50 is not above 1 nM.

Regarding `Cc1ncn2c1c(N)nc1ccc(C(=O)N(C)[C@@H]3COCc4cc(Br)ccc43)cc12` [Fg-13, (S)-4-amino-N-(7-bromoisochroman-4-yl)-N,3-dimethylimidazo[1,5-a]quinoxaline-8-carboxamide], the CC50 in series [1] (setting [3]) is less than 100 nM. Moreover, the EC50 selectivity in series [2] was 207. Further, in series [2] (setting [4]), the half-maximal effective concentration (EC50) was not above 1 nM.

On to `Cc1nc(C)n2c1c(N)nc1ccc(C(=O)N(C)[C@@H]3COCc4cc(Br)ccc43)cc12` [Fg-14, (S)-4-amino-N-(7-bromoisochroman-4-yl)-N,1,3-trimethylimidazo[1,5-a]quinoxaline-8-carboxamide], for which the CC50 in series [1] (setting [3]) lay within 100 to 1000 nM. In series [2], this molecule showed an EC50 selectivity of 158. The molecule further showed a half-maximal effective concentration (EC50) in series [2] (setting [4]) of 1 to 5 nM.

On to `Nc1nc2ccc(C(=O)N(Cc3ccc(C(F)(F)F)cn3)C34CC(C3)C4)cc2c2cncn12` [Fg-15, 5-amino-N-(bicyclo[1.1.1]pentan-1-yl)-N-((5-(trifluoromethyl)pyridin-2-yl)methyl)imidazo[1,5-c]quinazoline-9-carboxamide], for which the CC50 in series [1] (setting [3]) is more than 1000 nM. For the same molecule, in series [2], the EC50 selectivity amounted to 8. For the same molecule, the EC50 in series [2] (setting [4]) was more than 5 nM.

As to `Nc1nc2ccc(C(=O)N(Cc3cc4ccccn4n3)C34CC(C3)C4)cc2c2cncn12` [Fg-16, 5-amino-N-(bicyclo[1.1.1]pentan-1-yl)-N-(pyrazolo[1,5-a]pyridin-2-ylmethyl)imidazo[1,5-c]quinazoline-9-carboxamide], the 50% cytotoxic concentration (CC50) in series [1] (setting [3]) is more than 1000 nM. This molecule displayed an EC50 selectivity in series [2] of 6. Besides, the concentration giving a half-maximal response (EC50) in series [2] (setting [4]) was more than 5 nM.

Regarding `Cc1nc(C)n2c1c(N)nc1ccc(C(=O)N(C)[C@@H]3COc4cc(C(F)(F)F)ccc43)cc12` [Fg-18, (S)-4-amino-N,1,3-trimethyl-N-(6-(trifluoromethyl)-2,3-dihydrobenzofuran-3-yl)imidazo[1,5-a]quinoxaline-8-carboxamide], the cytotoxic concentration (CC50) in series [1] (setting [3]) is 100 to 1000 nM. Besides, the EC50 selectivity in series [2] is listed as 275. This molecule also had an EC50 in series [2] (setting [4]) of 1 to 5 nM.

Consider `Cc1ncn2c1c(N)nc1ccc(C(=O)N3C[C@@H](C)O[C@@H]4Cc5cc(C(F)(F)F)ccc5[C@@H]43)cc12` [Fg-35, (4-amino-3-methylimidazo[1,5-a]quinoxalin-8-yl)((2R,4aS,9aR)-2-methyl-7-(trifluoromethyl)-2,3,9,9a-tetrahydroindeno[2,1-b][1,4]oxazin-4(4aH)-yl)methanone], for which the CC50 in series [1] (setting [3]) was less than 100 nM. This molecule also displayed an EC50 selectivity in series [2] of 151. Moreover, the EC50 in series [2] (setting [4]) fell in the range of 1 to 5 nM.

Turning to `C[C@H]1CN(C(=O)c2cc3c(cc2F)nc(N)c2cncn23)[C@H]2c3ccc(C(F)(F)C(F)(F)F)cc3C[C@H]2O1` [Fg-38, (4-amino-7-fluoroimidazo[1,5-a]quinoxalin-8-yl)((2S,4aS,9aR)-2-methyl-7-(perfluoroethyl)-2,3,9,9a-tetrahydroindeno[2,1-b][1,4]oxazin-4(4aH)-yl)methanone], the half-maximal cytotoxic concentration (CC50) in series [1] (setting [3]) was less than 100 nM. For the same molecule, the EC50 selectivity in series [2] turned out to be 31. The molecule further gave a 50% effective concentration (EC50) in series [2] (setting [4]) of 1 to 5 nM.

Consider `Nc1nc2cc(F)c(C(=O)N3CCC[C@@H]4Oc5cc(C(F)(F)C(F)(F)F)ncc5[C@@H]43)cc2n2cncc12` [Fg-40, (4-amino-7-fluoroimidazo[1,5-a]quinoxalin-8-yl)((4aS,9bS)-7-(perfluoroethyl)-3,4,4a,9b-tetrahydrofuro[3,2-b:4,5-c′]dipyridin-1(2H)-yl)methanone], for which the CC50 in series [1] (setting [3]) was less than 100 nM. In addition, in series [2], the EC50 selectivity stood at 92. In series [2] (setting [4]), this molecule showed a 50% effective concentration (EC50) not above 1 nM.

In the case of `Cc1ncn2c1c(N)nc1cc(F)c(C(=O)N3CCC[C@@H]4Oc5cc(C(F)(F)C(F)(F)F)ncc5[C@@H]43)cc12` [Fg-41, (4-amino-7-fluoro-3-methylimidazo[1,5-a]quinoxalin-8-yl)((4aS,9bS)-7-(perfluoroethyl)-3,4,4a,9b-tetrahydrofuro[3,2-b:4,5-c′]dipyridin-1(2H)-yl)methanone], the cytotoxic concentration (CC50) in series [1] (setting [3]) was less than 100 nM. Moreover, the EC50 selectivity in series [2] was 42. The concentration for a half-maximal effect (EC50) in series [2] (setting [4]) lay within 1 to 5 nM.

On to `Nc1nc2cnc(C(=O)N3CCC[C@@H]4Oc5cc(S(F)(F)(F)(F)F)ccc5[C@@H]43)cc2n2cncc12` [Fg-42, (4-aminoimidazo[1,5-a]pyrido[3,4-e]pyrazin-8-yl)((4aS,9bS)-7-(pentafluoro-16-sulfaneyl)-3,4,4a,9b-tetrahydrobenzofuro[3,2-b]pyridin-1(2H)-yl)methanone], for which, in series [1], the CC50 was less than 100 nM and the CC50 selectivity is recorded as 38. In series [2] (HCT116 MTAP-deleted), the EC50 is not above 1 nM. The molecule further had an EC50 selectivity in series [2] of 57.

Regarding `Nc1nc2cnc(C(=O)N3C[C@@H](F)C[C@@H]4Oc5cc(OC(F)(F)F)ccc5[C@@H]43)cc2n2cncc12` [Fg-44, (4-aminoimidazo[1,5-a]pyrido[3,4-e]pyrazin-8-yl)((3S,4aS,9bS)-3-fluoro-7-(trifluoromethoxy)-3,4,4a,9b-tetrahydrobenzofuro[3,2-b]pyridin-1(2H)-yl)methanone], in series [1] (setting [3]), the 50% cytotoxic concentration (CC50) is less than 100 nM. In addition, the EC50 selectivity in series [2] stood at 119. This molecule gave an EC50 in series [2] (setting [4]) not above 1 nM.

Consider `Cc1ncn2c1c(N)nc1cnc(C(=O)N3C[C@@H](F)C[C@@H]4Oc5cc(OC(F)(F)F)ccc5[C@@H]43)cc12` [Fg-46, (4-amino-3-methylimidazo[1,5-a]pyrido[3,4-e]pyrazin-8-yl)((3S,4aS,9bS)-3-fluoro-7-(trifluoromethoxy)-3,4,4a,9b-tetrahydrobenzofuro[3,2-b]pyridin-1(2H)-yl)methanone], for which, in series [1] (setting [3]), the CC50 was less than 100 nM. This molecule registered an EC50 selectivity in series [2] of 273. Further, the EC50 in series [2] (setting [4]) is not above 1 nM.
